Test results taken from PMC11672292, “Discovery of Balasubramide Derivative with Tissue‐Specific Anti‐Inflammatory Activity Against Acute Lung Injury by Targeting VDAC1” (Advanced Science, 2024).

Key:
RAW264.7 cells = test: CCK-8 cell viability assay; format: cell-based, mouse; conditions: 10 μM, 24 h
Procedure: Cell viability was determined by CCK‐8 assay. RAW264.7 cells or mouse BMDMs cultured in a 96‐well plate were pretreated with various compounds at 10 µM or different concentrations of (+)3C‐20 for 24 h when cells reached 70% confluence and then were treated with DMEM containing 5 µL CCK‐8 reagent (A311, Vazyme, China) in a humidified atmosphere of 5% CO2 and 95% air for 1 h at 37 °C. The UV absorption values of the medium with CCK‐8 were measured at 450 nm in a ThermoFisher plate‐reader (VL0L0TD2, Waltham, USA).

mice = test: Subacute toxicity, 28 consecutive days of administration; format: in vivo
[1] = biological target: T1, recombinant human VDAC1 protein (rhVDAC1) (Homo sapiens, UniProt P21796); test: Surface plasmon resonance (SPR); format: binding
T1 construct: purchased Atagenix, China
T1 sequence (P21796 whole entry): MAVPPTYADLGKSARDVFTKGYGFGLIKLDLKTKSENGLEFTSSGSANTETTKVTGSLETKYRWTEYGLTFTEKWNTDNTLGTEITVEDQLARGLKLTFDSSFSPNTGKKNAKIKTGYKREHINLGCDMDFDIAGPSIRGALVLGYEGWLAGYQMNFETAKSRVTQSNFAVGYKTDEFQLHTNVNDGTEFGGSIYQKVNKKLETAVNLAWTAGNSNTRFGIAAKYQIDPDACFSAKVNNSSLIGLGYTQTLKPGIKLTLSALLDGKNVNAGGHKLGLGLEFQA
Procedure: To investigate the interaction of (+)3C‐20 and recombinant human VDAC1 protein (rhVDAC1), SPR experiments were performed. The overall experimental procedures were based on previous reports and had been improved with some modifications.^[ [35] ^] Briefly, 10 µM (+)3C‐20 was printed on the 3D photo‐crosslinking chip via the Biodot AD1520 chip array printer through a C─H covalent bond connection, and DMSO was conducted as a negative control at the same time. Following the vacuum‐dying and photo‐crosslinking reaction of the chip, the surface of the chip was flowed through with different concentrations (10, 40, 160, 640, 2560 nmol L^−1) of rhVDAC1 protein in PBST at 0.5 µL s^−1 for 600 s. Then, the proteins were dissociated from the surface of the chip in Glycine‐HCl (pH 2.0) at 2 µL s^−1 for 360 s. The binding signals (RU) were detected dynamically using Berthold bScreen LB 991. The RU responses of (+)3C‐20 with rhVDAC1 protein were recorded and ranked to determine the interaction intensity level, and the binding curve and affinity data were calculated by the system according to the Langmuir binding model.

Structure (SMILES): O=C(CCc1ccc(C(F)(F)F)cc1)O[C@@H]1C(=O)NCCc2c([nH]c3ccccc23)[C@H]1c1ccc(C(F)(F)F)cc1 [(+)3C-20]
- cell viability (RAW264.7 cells): 103.97 ± 3.88
- effects on the liver (AST, ALT) (mice; 50 mg kg^−1, 28 days): no harmful effects
- changes in body weight or relative organ weight (mice; 28 consecutive days of administration, 50 mg/kg): did not observe any harmful changes
- Kd ([1]; hVDAC1, printed in picture of Figure 5G): 3.95 µM
- Kd ([1]; rhVDAC1): ~3.95 µM
